In patent US7964531B2, “3-phenoxy-4-pyridazinol derivatives and herbicidal composition containing the same” (Mitsui Chemicals Agro, Inc., priority 2001, dated 2011):

Row | melting point | Compound
1 | 230 to 231 °C | CC(C)(C)c1cccc(C2CC2)c1Oc1nnc(Cl)cc1O [Compound No. 914, 3-(2-tert-Butyl-6-cyclopropylphenoxy)-6-chloro-4-pyridazinol]
2 | 229 to 234 °C | Cc1ccc(C2CC2)c(Oc2nnc(Cl)cc2O)c1C [Compound No. 1061, 6-Chloro-3-(6-cyclopropyl-2,3-dimethylphenoxy)-4-pyridazinol]
3 | 211 to 212 °C | N#Cc1ccc(C2CC2)c(Oc2nnc(Cl)cc2O)c1 [Compound No. 667, 3-[(6-Chloro-4-hydroxy-3-pyridazinyl)oxy]-4-cyclopropylbenzonitrile]
4 | 64 to 67 °C | Cc1cccc(C2CC2)c1Oc1nnc(Cl)cc1OS(=O)(=O)C(F)(F)F [Compound No. 2106, 6-Chloro-3-(2-cyclopropyl-6-methylphenoxy)-4-pyridazinyl trifluoromethanesulfonate]
5 | 191 to 194 °C | COc1ccccc1Oc1nnc(Cl)cc1O [Compound No. 385, 6-Chloro-3-(2-methoxyphenoxy)-4-pyridazinol]
6 | 183 to 186 °C | C=C(C)c1cccc(C)c1Oc1nnc(Cl)cc1O [Compound No. 2577, 6-Chloro-3-(2-isopropenyl-6-methylphenoxy)-4-pyridazinol]
7 | 258 to 260 °C | Cc1cc(C)c(F)c(Oc2nnc(Cl)cc2O)c1C [Compound No. 2597, 6-Chloro-3-(2-fluoro-3,5,6-trimethylphenoxy)-4-pyridazinol]
8 | 254 to 256 °C | Cc1cc(C)c(Oc2nnc(Cl)cc2O)c(Br)c1 [Compound No. 1119, 3-(2-Bromo-4,6-dimethylphenoxy)-6-chloro-4-pyridazinol]
9 | 126 to 127 °C | Cc1ccccc1Oc1nnc(Cl)cc1OC(=O)N1CCCC1 [Compound No. 1924, 6-Chloro-3-(2-methylphenoxy)-4-pyridazinyl 1-pyrrolidinecarboxylate]
10 | 135 to 137 °C | COc1ccc(Br)cc1Oc1nnc(Cl)cc1O [Compound No. 702, 3-(5-Bromo-2-methoxyphenoxy)-6-chloro-4-pyridazinol]
11 | 250 to 253 °C | COc1ccc(C2CC2)c(Oc2nnc(Cl)cc2O)c1C [Compound No. 1069, 6-Chloro-3-(6-cyclopropyl-3-methoxy-2-methylphenoxy)-4-pyridazinol]
12 | 233 to 237 °C | Oc1cc(Cl)nnc1Oc1ccc(Cl)cc1Cl [Compound No. 552, 6-Chloro-3-(2,4-dichlorophenoxy)-4-pyridazinol]
13 | 255 to 257 °C | Cc1ccc(C)c(Oc2nnc(Cl)cc2O)c1Br [Compound No. 1040, 3-(2-Bromo-3,6-dimethylphenoxy)-6-chloro-4-pyridazinol]
14 | 63 to 64 °C | Cc1ccccc1C(=O)Oc1cc(Cl)nnc1Oc1cccc(C(C)(C)C)c1 [Compound No. 1457, 3-(3-tert-Butylphenoxy)-6-chloro-4-pyridazinyl 2-methylbenzoate]
15 | 98 to 99 °C | Cc1ccc(S(=O)(=O)Oc2cc(Cl)nnc2Oc2ccccc2C(C)(C)C)cc1 [Compound No. 2224, 3-(2-tert-Butylphenoxy)-6-chloro-4-pyridazinyl 4-methylbenzenesulfonate]
16 | 187 to 189 °C | CCC(C)c1cccc(C)c1Oc1nnc(Cl)cc1O (centres unmarked) [Compound No. 804, 3-(2-s-Butyl-6-methylphenoxy)-6-chloro-4-pyridazinol]
17 | 215 to 220 °C | Cc1cccc(C(C)C)c1Oc1nnc(Cl)cc1O [Compound No. 803, 6-Chloro-3-(2-isopropyl-6-methylphenoxy)-4-pyridazinol]
18 | 194 to 199 °C | COc1cccc(C2CC2)c1Oc1nnc(Cl)cc1O [Compound No. 964, 6-Chloro-3-(2-cyclopropyl-6-methoxyphenoxy)-4-pyridazinol]
19 | 172 to 173 °C | Oc1cc(Cl)nnc1Oc1ccccc1C1(c2ccccc2)CC1 [Compound No. 184, 6-Chloro-3-[2-(1-phenylcyclopropyl)phenoxy]-4-pyridazinol]
20 | 92 to 93 °C | CN(C)C(=O)Oc1cc(Cl)nnc1Oc1cccc(C(F)(F)F)c1
